From ChEMBL document CHEMBL4616702 (ACS Med Chem Lett, 2020)

Experiments:
[1] = Cmax in Balb/c mouse at 10 mg/kg, po; format: ADME, organism-based; set-up: dose 10 mg/kg, route oral; settings: in vivo
[2] = biological target: T1, Oxysterols receptor LXR-beta (Homo sapiens, UniProt P55055); experiment: Inverse agonist activity at LXRbeta (unknown origin)
T1 sequence (P55055 whole entry): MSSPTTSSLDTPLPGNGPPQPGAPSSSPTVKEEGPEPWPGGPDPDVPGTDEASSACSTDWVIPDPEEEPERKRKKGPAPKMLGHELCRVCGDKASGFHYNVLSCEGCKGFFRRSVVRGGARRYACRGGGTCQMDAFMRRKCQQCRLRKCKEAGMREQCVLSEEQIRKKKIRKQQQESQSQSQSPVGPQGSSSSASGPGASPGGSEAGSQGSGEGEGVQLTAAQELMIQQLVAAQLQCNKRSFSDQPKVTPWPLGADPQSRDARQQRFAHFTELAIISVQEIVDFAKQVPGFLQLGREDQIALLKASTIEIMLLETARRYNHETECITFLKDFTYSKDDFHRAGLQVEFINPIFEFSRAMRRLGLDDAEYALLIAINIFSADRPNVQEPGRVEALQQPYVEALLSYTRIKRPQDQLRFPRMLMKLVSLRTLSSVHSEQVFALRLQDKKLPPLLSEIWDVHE

[3] = biological target: T2, Nuclear receptor ROR-alpha (Homo sapiens, UniProt P35398); experiment: Inverse agonist activity at Gal4-fused RORalpha (unknown origin)
T2 sequence (P35398 whole entry): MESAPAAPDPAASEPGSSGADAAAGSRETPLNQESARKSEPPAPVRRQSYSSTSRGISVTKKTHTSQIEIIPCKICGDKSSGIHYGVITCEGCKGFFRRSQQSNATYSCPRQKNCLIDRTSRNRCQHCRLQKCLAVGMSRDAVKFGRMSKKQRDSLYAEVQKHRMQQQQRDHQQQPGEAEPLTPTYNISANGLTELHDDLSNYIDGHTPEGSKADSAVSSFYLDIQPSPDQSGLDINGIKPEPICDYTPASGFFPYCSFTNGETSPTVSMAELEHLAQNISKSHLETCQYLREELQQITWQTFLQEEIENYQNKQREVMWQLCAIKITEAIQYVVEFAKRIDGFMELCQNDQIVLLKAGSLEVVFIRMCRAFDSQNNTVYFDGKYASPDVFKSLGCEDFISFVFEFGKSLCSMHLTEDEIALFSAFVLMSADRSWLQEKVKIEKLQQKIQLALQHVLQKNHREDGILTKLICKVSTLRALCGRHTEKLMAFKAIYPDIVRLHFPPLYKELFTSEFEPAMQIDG

[4] = biological target: T3, Nuclear receptor ROR-gamma (Mus musculus, UniProt P51450); experiment: Inverse agonist activity at RORgammat in mouse whole blood assessed as suppression of […] secretion; format: tissue-based
T3 sequence (P51450 whole entry): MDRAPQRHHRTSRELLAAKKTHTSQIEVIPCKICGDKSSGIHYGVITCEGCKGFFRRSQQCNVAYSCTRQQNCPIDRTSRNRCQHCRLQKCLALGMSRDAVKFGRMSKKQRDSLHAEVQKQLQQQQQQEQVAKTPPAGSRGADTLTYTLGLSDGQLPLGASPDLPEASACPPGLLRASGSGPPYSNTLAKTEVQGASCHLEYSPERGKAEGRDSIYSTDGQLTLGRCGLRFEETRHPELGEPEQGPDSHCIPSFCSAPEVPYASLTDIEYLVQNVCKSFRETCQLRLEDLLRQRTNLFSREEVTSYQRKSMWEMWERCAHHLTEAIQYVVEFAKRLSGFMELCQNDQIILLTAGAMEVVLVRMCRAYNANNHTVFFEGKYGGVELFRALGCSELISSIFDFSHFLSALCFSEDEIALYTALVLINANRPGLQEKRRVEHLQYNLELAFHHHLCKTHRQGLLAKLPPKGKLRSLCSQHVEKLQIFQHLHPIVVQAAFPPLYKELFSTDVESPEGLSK

[5] = Fraction unbound in mouse plasma; format: ADME, cell-free
[6] = Oral bioavailability in cynomolgus monkey at 1 mg/kg; format: ADME, organism-based, Macaca fascicularis; settings: in vivo
Cytochrome P450 1A2 = biological target: T4, Cytochrome P450 1A2 (Homo sapiens, UniProt P05177); experiment: Inhibition of recombinant CYP1A2 (unknown origin); format: ADME
T4 sequence (P05177 whole entry): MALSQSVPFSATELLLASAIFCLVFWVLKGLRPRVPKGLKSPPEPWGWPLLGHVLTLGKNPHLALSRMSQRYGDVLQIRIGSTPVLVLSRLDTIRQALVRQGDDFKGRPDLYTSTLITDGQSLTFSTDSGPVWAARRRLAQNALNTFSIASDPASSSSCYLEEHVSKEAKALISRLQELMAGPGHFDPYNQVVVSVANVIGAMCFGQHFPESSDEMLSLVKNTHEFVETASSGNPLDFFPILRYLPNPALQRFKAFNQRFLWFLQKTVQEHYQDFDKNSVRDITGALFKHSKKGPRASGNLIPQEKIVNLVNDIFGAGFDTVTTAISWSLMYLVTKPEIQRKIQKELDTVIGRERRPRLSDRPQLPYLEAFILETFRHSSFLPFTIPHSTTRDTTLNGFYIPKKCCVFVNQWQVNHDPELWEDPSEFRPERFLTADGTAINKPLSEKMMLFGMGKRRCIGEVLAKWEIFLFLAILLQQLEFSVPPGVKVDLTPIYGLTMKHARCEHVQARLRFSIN

[7] = AUC (0 to 24 hrs) in rat at 4 mg/kg, po; format: ADME, organism-based; set-up: time < 24 hr, dose 4 mg/kg, route oral; settings: in vivo
[8] = Fraction unbound in rat plasma; format: ADME, cell-free
[9] = Half life in dog at 1 mg/kg, iv; format: ADME, organism-based, Canis lupus familiaris; settings: in vivo
[10] = Volume of distribution in steady state in mouse at 2 mg/kg, iv; format: ADME, organism-based; settings: in vivo, read-out: Vdss
[11] = Half life in mouse at 2 mg/kg, iv; format: ADME, organism-based; settings: in vivo
[12] = Half life in rat at 2 mg/kg, iv; format: ADME, organism-based; settings: in vivo
[13] = Half life in human liver microsomes in presence of NADPH by LC/MS/MS method; format: ADME, Microsome
[14] = Oral bioavailability in rat at 4 mg/kg; format: ADME, organism-based; settings: in vivo
[15] = Clearance in cynomolgus monkey at 1 mg/kg, iv; format: ADME, organism-based, Macaca fascicularis; settings: in vivo
[16] = Fraction unbound in human plasma; format: ADME, cell-free
[17] = Permeability across apical to basolateral side in human Caco2 cells; format: ADME, cell-based; settings: Caco-2, read-out: permeability
[18] = Half life in cynomolgus monkey at 1 mg/kg, iv; format: ADME, organism-based, Macaca fascicularis; settings: in vivo
Cytochrome P450 2C9 = Cytochrome P450 2C9 (Homo sapiens, UniProt P11712); experiment: Inhibition of recombinant CYP2C9 (unknown origin); format: ADME
Cytochrome P450 2C9, sequence (P11712 whole entry): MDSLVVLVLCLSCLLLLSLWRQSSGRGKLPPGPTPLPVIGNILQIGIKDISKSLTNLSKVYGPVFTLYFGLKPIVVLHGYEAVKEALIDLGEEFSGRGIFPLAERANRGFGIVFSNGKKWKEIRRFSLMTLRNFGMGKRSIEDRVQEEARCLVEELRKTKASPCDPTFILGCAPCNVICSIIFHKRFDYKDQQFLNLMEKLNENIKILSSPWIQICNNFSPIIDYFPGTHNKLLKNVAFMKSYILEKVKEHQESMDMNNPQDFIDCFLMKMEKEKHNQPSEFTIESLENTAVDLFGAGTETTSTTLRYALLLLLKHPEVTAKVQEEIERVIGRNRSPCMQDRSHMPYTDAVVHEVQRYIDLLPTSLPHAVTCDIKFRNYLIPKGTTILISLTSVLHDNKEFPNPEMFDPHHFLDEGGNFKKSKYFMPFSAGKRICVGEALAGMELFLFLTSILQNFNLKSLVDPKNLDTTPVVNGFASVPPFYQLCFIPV

- Cmax [1]: 11 µM
- EC50 [2]: > 7.5 µM
- EC50 [3]: > 10 µM
- EC50 [4]: 0.011 µM
- fraction unbound [5]: 0.016
- bioavailability [6]: 100%
- IC50 (Cytochrome P450 1A2): > 20 µM
- AUC(0-t) at 24 h [7]: 64 µM·h
- fraction unbound [8]: 0.021
- half-life [9]: 36 h
- Vd [10]: 1.9 L/kg
- half-life [11]: 7.7 h
- half-life [12]: 11 h
- half-life [13]: > 2 h
- bioavailability [14]: 94%
- clearance [15]: 1.1 mL/min/kg
- fraction unbound [16]: 0.012
- Papp A→B [17]: 24 ×10⁻⁶ cm/s
- half-life [18]: 33 h
- IC50 (Cytochrome P450 2C9): > 20 µM
SMILES: C[C@H]1C[C@H](C(=O)O)CC[C@H]1C(=O)N1CC[C@@]2(S(=O)(=O)c3ccc(F)cc3)c3ccc(C(F)(C(F)(F)F)C(F)(F)F)cc3CC[C@@H]12 [BMS-986251]
